From US20080227724A1, “Anti-Inflammatory Agents” (CAMBRIDGE UNIVERSITY TECHNICAL SERVICES LIMITED, priority 2003, published 2008)
Bridge positions count the residues as written; N and C are the ends. Square brackets hold non-standard residues; d marks the D form. Ends that are not written are not given here.

Legend:
[1] = type: in vitro ADME, human
Description: As an approach to identifying such stable analogs, various derivatives of (S)-3-(undec-10-enoyl)-aminoglutarimide have been tested for their stability in serum.

[2] = test system: TNF-alpha; assay: Sub-lethal LPS-induced endotoxemia model, circulating TNF-alpha; type: in vivo, CD-1 mice; details: for block of TNF-alpha stimulation: at a suitable dose
Procedure: The anti-inflammatory activity of the compounds of the invention was determined in vivo using a sub-lethal LPS-induced endotoxemia model. Adult male CD-1 mice (n=6 per group) were pretreated with various agents (vehicle, compounds of the invention or positive control agents such as the steroid dexamethasone) by sub-cutaneous injection 30 minutes prior to an acute inflammatory challenge with 750 μg of bacterial lipopolysaccharide (from E. Coli 0111:B4; Sigma catalog #L-4130) via the intraperitoneal route. The vehicle in each case was 0.6% DMSO, 1% carboxymethyl cellulose, or alternatively 1% carboxymethylcellulose alone. For some of the compounds, this formulation results in a finely divided suspension or slurry rather than a clear solution. Two hours after LPS challenge, the animals were sacrificed and blood was drawn by cardiac puncture. The level of the pro-inflammatory cytokine TNF-alpha was determined using the Quantikine M ELISA (R&D Systems) for murine TNF-alpha, and reported as the mean ±standard error for each group.
By 2 hours after the LPS challenge, this had increased by more than 1,000 fold to an average of 20,000 pg/ml, representing a sensitive index of inflammatory activation. Pre-treatment with known anti-inflammatory drugs (such as the steroid dexamethasone) reduced the stimulation of TNF-alpha by up to 85-95%, depending on the dose given.
In a separate series of experiments, the compounds of the invention were administered to animals as an oral suspension, formulated in the same way as for the sub-cutaneous dosing experiments, followed 1 hour later with the LPS challenge exactly as described above. […] All five compounds were maximally active at a dose below 30 mg/kg.

[3] = test system: MCP-1 induced THP-1 cell migration; assay: Inhibition of MCP-1 induced leukocyte migration (transwell migration assay); type: cell-based, human; details: inhibition of MCP-1 induced THP-1 cell migration, dose-response curves
Procedure: In principle, this assay consists of two chambers separated by a porous membrane. The chemoattractant is placed in the lower compartment and the cells are placed in the upper compartment. After incubation for a period at 37° C. the cells move towards the chemoattractant, and the number of cells in the lower compartment is proportional to the chemoattractant activity (relative to a series of controls). The THP-1 cell line (European Cell culture Collection) were used as the leukocyte cell population. The following procedure is used for testing the invention compounds for MCP-1 induced leukocyte migration: First, the cell suspension to be placed in the upper compartment is prepared. The THP-1 cells are pelleted by centrifugation (770×g; 4 mins) and washed with Geys Balanced Salt Solution with 1 mg/ml BSA (GBSS+BSA). This wash is then repeated, and the cells repelleted before being resuspended in a small volume of GBSS+BSA for counting, for example using a standard haemocytometer. The volume of GBSS+BSA is then adjusted depending on the number of cells present so that the cells are at final density of 4.45×10^6 cells per ml of GBSS+BSA. […] The number of cells migrated into the lower chamber under each condition can then be determined by a number of methods, including direct counting, labelling with fluorescent or radioactive markers or through the use of a vital dye. […]

[4] = test system: chemokine-induced migration; assay: Chemokine-induced leukocyte migration in vitro (prior art); type: cell-based; details: parental molecule (S)-3-(undec-10-enoyl)-aminoglutarimide
[5] = cited from earlier work
[6] = oral suspension 1 hour before LPS
[7] = sub-cutaneous injection 30 minutes prior to LPS

| Molecule | block of TNF-alpha stimulation [2, 6] | block of TNF-alpha stimulation [2, 7] | also measured |
| --- | --- | --- | --- |
| C=CCCCCCCCCC(=O)N[C@H]1CCC(=O)NC1=O [NR58,4, (S)-3-(undec-10-enoyl)-aminoglutarimide] | – | – | stability of the aminoglutarimide ring in serum [1]: susceptible to enzymatic ring opening in serum |
| (R)-3-hexadecanoylamino-caprolactam [Example 7] | able to block TNF-alpha stimulation | block TNF-alpha stimulation to a similar extent to dexamethasone | – |
| (S)-3-(2′,2′-dimethyl-dodecanoyl)amino-caprolactam [Example 12] | able to block TNF-alpha stimulation | block TNF-alpha stimulation to a similar extent to dexamethasone | (S)-enantiomer more active than the (R)-enantiomer [3]: 10-50 fold |
| (S)-3-(2′,2′-Dimethyl-propionyl)amino-caprolactam [Example 20] | able to block TNF-alpha stimulation | block TNF-alpha stimulation to a similar extent to dexamethasone | – |
| (S)-(Z)-3-(octadec-9-enoyl)amino-caprolactam [Example 10] | able to block TNF-alpha stimulation | block TNF-alpha stimulation to a similar extent to dexamethasone | – |
| C=CCCCCCCCCC(=O)[C@@H]1CCCNC1=O [(S)-3-(undec-10-enoyl)-tetrahydropyridin-2-one] | – | – | time completely stable in human serum ([1]; human, 7 days): at least 7 days; potency compared with the parental molecule [4]: considerably reduced potency |
| (S)-(Z)-3-(hexadec-9-enoyl)amino-caprolactam [Example 9] | able to block TNF-alpha stimulation | block TNF-alpha stimulation to a similar extent to dexamethasone | – |
| c(DCys-DGln-DIle-DTrp-DLys-DGln-DLys-DPro-DAsp-DLeu-DCys)-NH2 ([dC][dQ][dI][dW][dK][dQ][dK][dP][dD][dL][dC]-NH2; disulfide 1-11 (inferred)) [NR58-3.14.3] | – | – | half-life period of clearance from blood plasma ([5]; after intravenous injection): less than 30 minutes; oral bioavailability ([5]; in vivo, po): not orally bioavailable |
| C[C@@H]1C[C@H]2[C@@H]3CCC4=CC(=O)C=C[C@]4(C)[C@@]3(F)[C@@H](O)C[C@]2(C)[C@@]1(O)C(=O)CO [dexamethasone, reference compound] | – | – | reduction of the stimulation of TNF-alpha ([2]; pre-treatment, 2 hours after LPS challenge, depending on the dose given): 85-95% |
